{
  "source": "paper PMC11956013",
  "about": "“Structure–Activity Relationships and Evaluation of 2-(Heteroaryl-cycloalkyl)-1H-indoles as Tauopathy Positron Emission Tomography Radiotracers” (Journal of Medicinal Chemistry, 2025)",
  "key": {"5-HT1A (h)": {"target": "5-HT1A (h) (Homo sapiens, UniProt P08908)", "details": "1.0E-05 M; 5-HT1A (h) (agonist radioligand)"}, "CYP3A": {"target": "CYP3A (Homo sapiens, UniProt P08684)", "assay": "in vitro", "details": "human liver microsomes, probe midazolam"}, "Oxytocin (h)": {"target": "Oxytocin (h) (Homo sapiens, UniProt P30559)", "details": "compound concentration 1.0E-05 M"}, "CCK1 (CCKA) (h)": {"target": "CCK1 (CCKA) (h) (Homo sapiens, UniProt P32238)", "sequence (P32238 whole entry)": "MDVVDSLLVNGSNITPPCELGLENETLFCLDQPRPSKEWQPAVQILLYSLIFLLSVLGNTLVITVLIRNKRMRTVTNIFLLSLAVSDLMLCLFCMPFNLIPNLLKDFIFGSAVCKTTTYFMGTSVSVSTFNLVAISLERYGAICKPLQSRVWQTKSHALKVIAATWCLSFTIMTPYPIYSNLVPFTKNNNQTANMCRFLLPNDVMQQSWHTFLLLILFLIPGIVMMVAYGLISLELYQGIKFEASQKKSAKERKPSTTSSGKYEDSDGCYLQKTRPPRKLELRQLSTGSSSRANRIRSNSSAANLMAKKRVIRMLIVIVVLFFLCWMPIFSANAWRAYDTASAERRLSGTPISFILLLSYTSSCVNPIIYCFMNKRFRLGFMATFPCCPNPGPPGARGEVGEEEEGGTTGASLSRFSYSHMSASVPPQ", "assay": "biochemical"}, "ETA (h)": {"target": "ETA (h) (Homo sapiens, UniProt P25101)", "sequence (P25101 21-427)": "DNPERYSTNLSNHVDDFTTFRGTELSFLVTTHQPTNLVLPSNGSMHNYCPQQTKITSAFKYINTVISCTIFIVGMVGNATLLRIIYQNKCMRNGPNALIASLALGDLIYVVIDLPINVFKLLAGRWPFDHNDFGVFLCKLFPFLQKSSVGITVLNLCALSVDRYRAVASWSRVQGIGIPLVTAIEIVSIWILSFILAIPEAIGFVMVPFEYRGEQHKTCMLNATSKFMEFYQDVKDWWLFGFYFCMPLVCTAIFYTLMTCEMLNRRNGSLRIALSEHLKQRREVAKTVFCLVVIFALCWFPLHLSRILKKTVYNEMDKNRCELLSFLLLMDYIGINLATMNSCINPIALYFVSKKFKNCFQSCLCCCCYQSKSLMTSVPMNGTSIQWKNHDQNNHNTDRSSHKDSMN", "assay": "biochemical"}, "[1]": {"target": "GABAA1 (h) (alpha1,beta2,gamma2) (Homo sapiens, UniProt P14867+P47870)", "sequence (P18507 40-475)": "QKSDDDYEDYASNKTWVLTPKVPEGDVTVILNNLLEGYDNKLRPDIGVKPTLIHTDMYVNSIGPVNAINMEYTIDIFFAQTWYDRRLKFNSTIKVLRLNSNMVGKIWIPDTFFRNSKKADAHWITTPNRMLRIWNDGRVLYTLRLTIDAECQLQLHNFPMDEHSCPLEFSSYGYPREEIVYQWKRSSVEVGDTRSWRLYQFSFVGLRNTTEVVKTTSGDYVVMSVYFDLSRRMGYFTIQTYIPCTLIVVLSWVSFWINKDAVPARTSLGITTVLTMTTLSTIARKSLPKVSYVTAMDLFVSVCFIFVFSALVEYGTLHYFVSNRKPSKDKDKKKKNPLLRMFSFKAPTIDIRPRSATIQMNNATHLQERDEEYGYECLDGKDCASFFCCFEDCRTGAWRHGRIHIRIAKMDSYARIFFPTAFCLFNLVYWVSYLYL", "sequence (P14867 28-456)": "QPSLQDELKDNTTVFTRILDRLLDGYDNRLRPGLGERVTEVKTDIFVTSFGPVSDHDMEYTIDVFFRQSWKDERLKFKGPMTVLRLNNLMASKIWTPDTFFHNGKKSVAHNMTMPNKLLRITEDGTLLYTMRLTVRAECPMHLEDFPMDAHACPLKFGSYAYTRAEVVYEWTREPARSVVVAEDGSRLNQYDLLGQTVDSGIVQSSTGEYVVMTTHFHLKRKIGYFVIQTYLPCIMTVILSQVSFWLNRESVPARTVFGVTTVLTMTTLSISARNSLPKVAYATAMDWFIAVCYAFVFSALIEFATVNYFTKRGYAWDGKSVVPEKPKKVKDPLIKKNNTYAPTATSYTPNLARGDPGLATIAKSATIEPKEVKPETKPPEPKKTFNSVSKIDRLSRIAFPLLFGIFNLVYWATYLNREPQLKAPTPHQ", "sequence (P47870 25-512)": "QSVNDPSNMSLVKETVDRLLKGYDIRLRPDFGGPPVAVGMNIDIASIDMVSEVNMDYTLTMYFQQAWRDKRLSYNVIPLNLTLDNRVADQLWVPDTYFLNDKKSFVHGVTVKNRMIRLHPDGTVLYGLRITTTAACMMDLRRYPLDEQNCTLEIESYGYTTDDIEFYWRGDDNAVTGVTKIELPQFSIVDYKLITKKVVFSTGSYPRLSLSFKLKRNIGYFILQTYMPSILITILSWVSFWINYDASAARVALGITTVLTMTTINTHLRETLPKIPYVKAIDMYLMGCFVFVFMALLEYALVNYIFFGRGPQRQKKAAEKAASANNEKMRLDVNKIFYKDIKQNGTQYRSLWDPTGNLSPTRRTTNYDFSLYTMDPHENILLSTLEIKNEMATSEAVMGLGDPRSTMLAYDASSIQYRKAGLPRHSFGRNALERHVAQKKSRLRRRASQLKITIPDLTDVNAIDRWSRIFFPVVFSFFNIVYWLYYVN", "assay": "GABAA1 (h) (alpha1,beta2,gamma2) (agonist radioligand), Eurofins assay 3051"}, "alpha1B (h)": {"target": "alpha1B (h) (Homo sapiens, UniProt P35368)", "sequence (P35368 whole entry)": "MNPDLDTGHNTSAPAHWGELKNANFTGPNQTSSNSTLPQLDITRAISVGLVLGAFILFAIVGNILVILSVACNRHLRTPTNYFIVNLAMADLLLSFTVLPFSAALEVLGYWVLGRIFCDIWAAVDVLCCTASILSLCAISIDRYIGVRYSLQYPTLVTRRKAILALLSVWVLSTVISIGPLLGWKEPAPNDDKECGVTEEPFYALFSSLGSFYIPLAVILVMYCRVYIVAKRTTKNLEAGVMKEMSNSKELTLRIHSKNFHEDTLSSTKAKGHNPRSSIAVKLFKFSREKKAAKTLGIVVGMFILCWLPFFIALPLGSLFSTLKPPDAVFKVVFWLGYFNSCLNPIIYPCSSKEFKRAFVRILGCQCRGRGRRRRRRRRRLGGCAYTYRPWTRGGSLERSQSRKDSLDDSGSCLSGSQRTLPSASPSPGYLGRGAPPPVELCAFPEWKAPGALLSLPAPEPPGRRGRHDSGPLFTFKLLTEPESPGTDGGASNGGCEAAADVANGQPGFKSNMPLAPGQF", "details": "1.0E-05 M; alpha1B (h) (antagonist radioligand)"}, "[2]": {"target": "T1, Glutamate (Non-Selective) Rat Ion Channel Glycine (Strychnine-Insensitive) (Rattus norvegicus, UniProt P35439)", "T1 construct": "Eurofins assay 5043", "assay": "Glutamate (Non-Selective) Rat Ion Channel Glycine (Strychnine-Insensitive), Mass Spectrometry Binding, assay 5043"}, "EGFR kinase (h)": {"target": "EGFR kinase (h) (Homo sapiens, UniProt P00533)", "details": "Enzymatic activity; 1.0E-05 M"}, "IRK (h) (InsR)": {"target": "IRK (h) (InsR) (Homo sapiens, UniProt P06213)", "assay": "biochemical"}, "A2A (h)": {"target": "A2A (h) (Homo sapiens, UniProt P29274)", "sequence (P29274 whole entry)": "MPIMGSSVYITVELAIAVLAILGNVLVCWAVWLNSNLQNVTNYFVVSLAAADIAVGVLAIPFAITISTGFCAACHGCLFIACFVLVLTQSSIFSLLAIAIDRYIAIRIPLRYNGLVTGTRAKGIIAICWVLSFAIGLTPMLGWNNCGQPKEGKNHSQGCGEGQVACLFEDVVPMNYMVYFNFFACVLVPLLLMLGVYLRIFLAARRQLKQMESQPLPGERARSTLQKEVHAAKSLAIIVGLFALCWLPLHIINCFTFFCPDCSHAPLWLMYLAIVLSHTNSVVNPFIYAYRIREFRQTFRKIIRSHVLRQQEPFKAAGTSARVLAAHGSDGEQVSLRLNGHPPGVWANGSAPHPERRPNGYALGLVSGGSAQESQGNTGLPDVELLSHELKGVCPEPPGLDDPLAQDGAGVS", "details": "1.0E-05 M; A2A (h) (agonist radioligand)"}, "[3]": {"test_system": "sigma (non-selective) (h)", "details": "compound concentration 1.0E-05 M"}, "kainate": {"test_system": "kainate", "assay": "kainate (agonist radioligand), Eurofins assay 65", "details": "Specific binding; 1.0E-05 M"}, "5-HT3 (h)": {"target": "5-HT3 (h) (Homo sapiens, UniProt P46098)", "details": "1.0E-05 M; 5-HT3 (h) (antagonist radioligand)"}, "[4]": {"target": "GABAA (alpha1/beta2/gamma2) Human Ion Channel, Picrotoxinin site (Homo sapiens, UniProt P14867+P18507+P47870)", "sequence (P47870 25-512)": "as the sequence (P47870 25-512) above", "sequence (P14867 28-456)": "as the sequence (P14867 28-456) above", "sequence (P18507 40-475)": "as the sequence (P18507 40-475) above", "assay": "biochemical", "type": "binding"}, "B2 (h)": {"target": "B2 (h) (Homo sapiens, UniProt P30411)", "details": "1.0E-05 M; B2 (h) (agonist radioligand)"}, "NK1 (h)": {"target": "NK1 (h) (Homo sapiens, UniProt P25103)", "details": "compound concentration 1.0E-05 M"}, "OX2 (h)": {"target": "T2, OX2 (h) (Homo sapiens, UniProt O43614)", "T2 sequence (O43614 1-444)": "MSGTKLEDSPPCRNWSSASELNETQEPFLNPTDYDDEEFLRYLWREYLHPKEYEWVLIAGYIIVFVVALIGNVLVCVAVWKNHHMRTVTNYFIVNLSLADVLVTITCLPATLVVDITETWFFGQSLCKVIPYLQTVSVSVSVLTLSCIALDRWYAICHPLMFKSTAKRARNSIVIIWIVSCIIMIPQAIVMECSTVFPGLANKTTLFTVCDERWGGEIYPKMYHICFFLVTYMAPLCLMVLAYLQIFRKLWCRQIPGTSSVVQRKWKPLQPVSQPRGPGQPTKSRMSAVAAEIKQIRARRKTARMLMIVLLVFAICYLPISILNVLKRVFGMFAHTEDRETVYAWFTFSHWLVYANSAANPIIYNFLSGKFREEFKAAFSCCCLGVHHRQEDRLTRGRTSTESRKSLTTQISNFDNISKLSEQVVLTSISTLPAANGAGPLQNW", "assay": "Eurofins panel: OX2 (h) (agonist radioligand)", "details": "compound concentration 1.0E-05 M"}, "Y1 (h)": {"target": "Y1 (h) (Homo sapiens, UniProt P25929)", "sequence (P25929 whole entry)": "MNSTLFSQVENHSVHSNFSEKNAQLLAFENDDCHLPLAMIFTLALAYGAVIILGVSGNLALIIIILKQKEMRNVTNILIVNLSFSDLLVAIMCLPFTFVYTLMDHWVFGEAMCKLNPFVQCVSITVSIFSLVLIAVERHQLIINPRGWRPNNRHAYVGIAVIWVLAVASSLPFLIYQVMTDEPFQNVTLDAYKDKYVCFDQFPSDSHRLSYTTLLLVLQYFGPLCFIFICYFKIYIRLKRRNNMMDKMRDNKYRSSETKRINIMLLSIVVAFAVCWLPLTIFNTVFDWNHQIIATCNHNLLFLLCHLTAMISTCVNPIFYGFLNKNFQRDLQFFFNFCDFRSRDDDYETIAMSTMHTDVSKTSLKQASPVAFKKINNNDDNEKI", "details": "compound concentration 1.0E-05 M"}, "[5]": {"target": "N neuronal alpha4beta2 (h) (Homo sapiens, UniProt P17787+P43681)", "sequence (P43681 29-627)": "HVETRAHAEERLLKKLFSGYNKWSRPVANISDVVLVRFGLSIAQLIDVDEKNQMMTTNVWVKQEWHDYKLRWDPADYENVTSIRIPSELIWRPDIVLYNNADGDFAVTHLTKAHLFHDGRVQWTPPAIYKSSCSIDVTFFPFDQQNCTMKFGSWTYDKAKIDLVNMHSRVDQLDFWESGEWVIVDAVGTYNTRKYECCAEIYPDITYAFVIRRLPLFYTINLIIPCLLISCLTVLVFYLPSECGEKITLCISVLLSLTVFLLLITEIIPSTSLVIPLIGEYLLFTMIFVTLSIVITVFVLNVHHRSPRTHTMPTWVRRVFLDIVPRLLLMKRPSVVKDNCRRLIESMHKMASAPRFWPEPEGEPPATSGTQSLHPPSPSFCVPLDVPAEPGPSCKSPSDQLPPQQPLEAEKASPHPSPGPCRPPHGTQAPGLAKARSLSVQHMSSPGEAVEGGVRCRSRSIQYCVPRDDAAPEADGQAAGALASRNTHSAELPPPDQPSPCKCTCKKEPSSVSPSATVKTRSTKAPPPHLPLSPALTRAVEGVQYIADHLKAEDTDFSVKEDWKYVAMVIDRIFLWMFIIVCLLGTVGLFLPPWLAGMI", "sequence (P17787 26-502)": "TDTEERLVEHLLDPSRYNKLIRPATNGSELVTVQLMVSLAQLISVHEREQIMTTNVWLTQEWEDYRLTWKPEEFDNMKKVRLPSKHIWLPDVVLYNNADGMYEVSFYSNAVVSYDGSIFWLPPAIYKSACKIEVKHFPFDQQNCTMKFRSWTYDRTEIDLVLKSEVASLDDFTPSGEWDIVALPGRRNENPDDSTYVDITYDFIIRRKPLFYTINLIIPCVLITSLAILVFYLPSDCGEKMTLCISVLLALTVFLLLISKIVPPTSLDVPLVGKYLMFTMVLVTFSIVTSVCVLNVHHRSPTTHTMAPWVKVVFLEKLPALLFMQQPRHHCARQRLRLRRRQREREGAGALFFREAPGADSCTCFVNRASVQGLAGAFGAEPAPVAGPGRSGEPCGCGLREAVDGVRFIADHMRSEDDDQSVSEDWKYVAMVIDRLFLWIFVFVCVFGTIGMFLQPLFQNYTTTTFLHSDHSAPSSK", "details": "compound concentration 1.0E-05 M"}, "A3 (h)": {"target": "A3 (h) (Homo sapiens, UniProt P0DMS8)", "details": "1.0E-05 M; A3 (h) (agonist radioligand)"}, "alpha2A (h)": {"target": "alpha2A (h) (Homo sapiens, UniProt P08913)", "details": "1.0E-05 M; alpha2A (h) (antagonist radioligand)"}, "BZDp (TSPO) (h)": {"target": "BZDp (TSPO) (h) (Homo sapiens, UniProt P30536)", "sequence (P30536 whole entry)": "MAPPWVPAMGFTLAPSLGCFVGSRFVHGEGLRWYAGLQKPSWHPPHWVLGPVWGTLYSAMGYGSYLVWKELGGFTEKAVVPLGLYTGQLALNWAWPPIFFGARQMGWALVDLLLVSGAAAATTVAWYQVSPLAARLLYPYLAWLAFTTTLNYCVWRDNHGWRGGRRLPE", "assay": "Eurofins panel: BZDp (TSPO) (h) (antagonist radioligand)", "details": "1.0E-05 M; BZDp (TSPO) (h) (antagonist radioligand)"}, "[6]": {"target": "carbonic anhydrase II (h) (Homo sapiens, UniProt P00918)", "details": "1.0E-05 M"}, "CYP1A2": {"target": "CYP1A2 (Homo sapiens, UniProt P05177)", "assay": "in vitro", "details": "human liver microsomes, probe tacrine"}},
  "data": [
    {"smiles": "Fc1nc(N2CCOCC2)ccc1-c1cc2ccccc2[nH]1", "note": "[Compound 75, 4-(6-Fluoro-5-(1H-indol-2-yl)pyridin-2-yl)morpholine]", "values": [
      {"measurement": "% Inhibition, Specific binding", "setting": "5-HT1A (h)", "value": 11.4159, "unit": "%"},
      {"measurement": "inhibition at 10 µM", "setting": "CYP3A", "value": -2.45, "unit": "%"},
      {"measurement": "% Inhibition, Specific binding", "setting": "Oxytocin (h)", "value": 25.3038, "unit": "%"},
      {"measurement": "inhibition at 10 µM", "setting": "CCK1 (CCKA) (h)", "value": -78.7, "unit": "%"},
      {"measurement": "inhibition at 10 µM", "setting": "ETA (h)", "value": 4.29, "unit": "%"},
      {"measurement": "inhibition at 10 µM", "setting": "[1]", "value": 7.7, "unit": "%"},
      {"measurement": "% Inhibition, Specific binding", "setting": "alpha1B (h)", "value": "-4.91E+00", "unit": "%"},
      {"measurement": "inhibition at 10 µM", "setting": "[2]", "value": 3.36, "unit": "%"},
      {"measurement": "% Inhibition", "setting": "EGFR kinase (h)", "value": 16.5474, "unit": "%"},
      {"measurement": "inhibition at 10 µM", "setting": "IRK (h) (InsR)", "value": -5.12, "unit": "%"},
      {"measurement": "% Inhibition, Specific binding", "setting": "A2A (h)", "value": 6.474, "unit": "%"},
      {"measurement": "% Inhibition, Specific binding", "setting": "[3]", "value": "-4.77E+00", "unit": "%"},
      {"measurement": "% Inhibition", "setting": "kainate", "value": 7.0556, "unit": "%"},
      {"measurement": "% Inhibition, Specific binding", "setting": "5-HT3 (h)", "value": 0.4312, "unit": "%"},
      {"measurement": "inhibition at 10 µM", "setting": "[4]", "value": 8.53, "unit": "%"},
      {"measurement": "% Inhibition, Specific binding", "setting": "B2 (h)", "value": "-1.15E+01", "unit": "%"},
      {"measurement": "% Inhibition, Specific binding", "setting": "NK1 (h)", "value": 21.8946, "unit": "%"},
      {"measurement": "% Inhibition, Specific binding", "setting": "OX2 (h)", "value": 0.786, "unit": "%"},
      {"measurement": "% Inhibition, Specific binding", "setting": "Y1 (h)", "value": "-2.40E+01", "unit": "%"},
      {"measurement": "% Inhibition, Specific binding", "setting": "[5]", "value": "-8.72E+00", "unit": "%"},
      {"measurement": "% Inhibition, Specific binding", "setting": "A3 (h)", "value": 5.821, "unit": "%"},
      {"measurement": "% Inhibition, Specific binding", "setting": "alpha2A (h)", "value": "-8.25E+00", "unit": "%"},
      {"measurement": "% Inhibition, Specific binding", "setting": "BZDp (TSPO) (h)", "value": 21.7657, "unit": "%"},
      {"measurement": "% Inhibition, Enzymatic activity", "setting": "[6]", "value": "-2.68E+01", "unit": "%"},
      {"measurement": "inhibition at 10 µM", "setting": "CYP1A2", "value": -10.4, "unit": "%"}
    ]}
  ]
}
